# Assay results from ChEMBL document CHEMBL1139716, “Naphtho[2,3-b][1,4]-thiazine-5,10-diones and 3-substituted-1,4-dioxo-1,4-dihydronaphthalen-2-yl-thioalkanoate derivatives: synthesis and biological evaluation as potential antibacterial and antifungal agents” (Bioorg Med Chem Lett, 2006).
# Legend:
# [1] = test system: Cryptococcus neoformans; experiment: Antifungal activity against Cryptococcus neoformans by broth microdilution technique; assay type: functional, organism-based
# [2] = test system: Sporothrix schenckii; experiment: Antifungal activity against Sporothrix schenckii by broth microdilution technique; assay type: functional, organism-based
# [3] = test system: Pseudomonas aeruginosa; experiment: Antibacterial activity against Pseudomonas aeruginosa by broth microdilution technique; assay type: functional, organism-based; settings: for IC50: read-out: IC50
# [4] = test system: Trichophyton benhamiae; experiment: Antifungal activity against Trichophyton mentagrophytes by broth microdilution technique; assay type: functional, organism-based, Arthroderma benhamiae
# [5] = test system: Candida parapsilosis; experiment: Antifungal activity against Candida parapsilosis ATCC 22019 by broth microdilution technique; assay type: functional, organism-based; settings: Lodderomyces parapsilosis
# [6] = test system: Staphylococcus aureus; experiment: Antibacterial activity against Staphylococcus aureus by broth microdilution technique; assay type: functional, organism-based; settings: for IC50: read-out: IC50
# [7] = test system: Candida albicans; experiment: Antifungal activity against Candida albicans by broth microdilution technique; assay type: functional, organism-based
# [8] = test system: Escherichia coli; experiment: Antibacterial activity against Escherichia coli by broth microdilution technique; assay type: functional, organism-based; settings: for IC50: read-out: IC50
# [9] = test system: Enterococcus faecalis; experiment: Antibacterial activity against Streptococcus faecalis by broth microdilution technique; assay type: functional, organism-based; settings: for IC50: read-out: IC50
# [10] = test system: Klebsiella pneumoniae; experiment: Antibacterial activity against Klebsiella pneumoniae by broth microdilution technique; assay type: functional, organism-based; settings: for IC50: read-out: IC50
# [11] = test system: Aspergillus fumigatus; experiment: Antifungal activity against Aspergillus fumigatus by broth microdilution technique; assay type: functional, organism-based
Molecule,IC50 [1] [µg/mL],MIC [1] [µg/mL],IC50 [2] [µg/mL],MIC [2] [µg/mL],MIC ([3]; Pseudomonas aeruginosa) [µg/mL],IC50 ([3]; Pseudomonas aeruginosa) [µg/mL],IC50 [4] [µg/mL],MIC [4] [µg/mL],IC50 [5] [µg/mL],MIC [5] [µg/mL],MIC ([6]; Staphylococcus aureus) [µg/mL],IC50 ([6]; Staphylococcus aureus) [µg/mL],MIC [7] [µg/mL],IC50 ([8]; Escherichia coli) [µg/mL],MIC ([9]; Enterococcus faecalis) [µg/mL],IC50 ([9]; Enterococcus faecalis) [µg/mL],MIC ([10]; Klebsiella pneumoniae) [µg/mL],IC50 ([10]; Klebsiella pneumoniae) [µg/mL],IC50 [11] [µg/mL],MIC [11] [µg/mL],further results
CCOC(=O)CSC1=C(NCC(C)C)C(=O)c2ccccc2C1=O,> 50,> 50,22.8,50,50,42.5,9.8,12.5,> 50,> 50,25,21.6,> 50,39.3,25,19.5,50,38.5,> 50,> 50,IC50 [7]: > 50 µg/mL; MIC ([8]; Escherichia coli): 50 µg/mL
Cc1sc2c(=O)c3ccccc3c(=O)c=2n(C)c1O,1.54,3.12,2.84,3.12,50,49.3,0.9,1.56,10.4,12.5,3.12,1.92,6.25,0.96,3.12,2.58,3.12,1.98,3.98,6.25,IC50 [7]: 5.3 µg/mL; MIC ([8]; Escherichia coli): 1.56 µg/mL
CCOC(=O)C(C)SC1=C(NN)C(=O)c2ccccc2C1=O (stereo unspecified),13.3,25,22,25,6.25,4.62,4.5,6.25,17.3,25,6.25,5.65,50,5.2,25,22.3,6.25,5.28,22.4,25,IC50 [7]: 24.2 µg/mL; MIC ([8]; Escherichia coli): 6.25 µg/mL
CCOC(=O)CSC1=C(NCc2ccccc2)C(=O)c2ccccc2C1=O,> 50,> 50,> 50,> 50,> 50,> 50,4.5,6.25,> 50,> 50,12.5,11.6,> 50,9.2,> 50,> 50,25,22.3,> 50,> 50,IC50 [7]: > 50 µg/mL; MIC ([8]; Escherichia coli): 12.5 µg/mL
CC1(C)S[C@@H]2[C@H](NC(=O)[C@H](N)c3ccccc3)C(=O)N2[C@H]1C(=O)O [AMPICILLIN],–,–,–,–,50,48.7,–,–,–,–,0.9,0.74,–,0.01,0.02,0.01,0.09,0.08,–,–,–
OC(Cn1cncn1)(Cn1cncn1)c1ccc(F)cc1F [FLUCONAZOLE],0.46,1,1.45,2,–,–,0.63,1,–,1,–,–,0.5,–,–,–,–,–,1.06,2,–
GENTAMICIN,–,–,–,–,–,–,–,–,–,–,–,–,–,–,–,–,–,–,–,–,MIC [3]: 25 µg/mL; MIC [6]: 6.25 µg/mL; MIC [8]: 0.18 µg/mL; MIC [9]: 0.78 µg/mL; MIC [10]: 0.78 µg/mL
CCOC(=O)C(C)SC1=C(NC(C)(C)C)C(=O)c2ccccc2C1=O (stereo unspecified),10.3,12.5,10.9,12.5,6.25,5.32,2.8,3.12,22.2,25,6.25,3.98,50,4.38,6.25,5.62,6.25,4.82,21.8,25,IC50 [7]: 38.3 µg/mL; MIC ([8]; Escherichia coli): 6.25 µg/mL
CCOC(=O)C(C)SC1=C(N)C(=O)c2ccccc2C1=O (stereo unspecified),12,12.5,17.9,25,50,34.5,> 50,> 50,21.2,25,6.25,6.16,25,1.18,12.5,8.54,12.5,11.7,16.6,25,IC50 [7]: 24.2 µg/mL; MIC ([8]; Escherichia coli): 1.56 µg/mL
